From patent US12545643B2, “3,5-diaminobenzoic acid compound, and Pin1 inhibitor and therapeutic agent for inflammatory diseases using same” (Amenis Bioscience, Inc., priority 2020, dated 2026)

Tests used:
Pin1 [1] = molecular target: T1, Pin1 (Homo sapiens, UniProt Q13526); experiment: Cell-based assay of Pin1 inhibition (AMPK phosphorylation level as index, Western blot); design: endogenous in cells; host or cells: 293T cells; key: +++: a higher level of AMPK phosphorylation is promoted, as compared with C1; ++: a similar level of AMPK phosphorylation is promoted, as compared with C1; +: a lower level of AMPK phosphorylation is promoted, as compared with C1; −: no or almost no promotion is found in AMPK phosphorylation; details: 293T cells, compound at 50 μM, 10 mM 2-DG, pAMPK level compared with known Pin1 inhibitor C1
T1 sequence (Q13526 whole entry): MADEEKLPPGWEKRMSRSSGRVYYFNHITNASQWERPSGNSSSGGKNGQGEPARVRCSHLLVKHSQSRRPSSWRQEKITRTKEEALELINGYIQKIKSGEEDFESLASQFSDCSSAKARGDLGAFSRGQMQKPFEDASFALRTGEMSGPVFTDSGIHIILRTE
Protocol: To evaluate the inhibitory activity of each compound synthesized in Example 1 against the function of Pin1, a cell-based assay was performed according to the method previously developed by the inventors (Yusuke Nakatsu et al., Journal of Biological Chemistry, 2015, Vol. 290, No. 40, pp. 24255-24266), in which the phosphorylation level of AMPK (AMP-activated protein kinase), a protein whose phosphorylation is suppressed by Pin1, was examined as an index.
Briefly, 293T cells were plated on a collagen-coated 24-well plate. Forty-eight hours later, each compound synthesized in the preceding example (at 50 μM) was added to the plate, and the plate was left to stand in an incubator for 30 minutes. Subsequently, 10 mM 2-DG was added to the plate, and one hour later, each sample was collected with a buffer containing mercaptoethanol and SDS.
SDS-PAGE and blotting were performed, and blocking was then performed with 3% BSA for 1 hour, according to conventional protocols. Subsequently, a pAMPK antibody (Cell Signaling; diluted 1:2000 in Can Get Signal Solution 1, Toyobo) as a primary antibody, and an HRP-linked anti rabbit IgG (GE Healthcare; diluted 1:4000 in Can Get Signal Solution 2, Toyobo) as a secondary antibody were allowed to react at ambient temperature for 1 hour prior to detection.
The inhibitory activity against the function of Pin1 was evaluated as indicated below by comparing the inhibition levels between each compound and a known Pin1 inhibitor, C1 ((R)-2-(5-(4-methoxyphenyl)-2-methylfuran-3-carboxamido)-3-(naphthalene-6-yl) propanoic acid):
(+++): a higher level of AMPK phosphorylation is promoted, as compared with C1;
(++): a similar level of AMPK phosphorylation is promoted, as compared with C1;
(+): a lower level of AMPK phosphorylation is promoted, as compared with C1;
(−): no or almost no promotion is found in AMPK phosphorylation.

Pin1 [2] = molecular target: T1, Pin1; experiment: Cell-free assay of peptidylprolyl isomerase activity (absorbance at 330 nm, substrate Suc-Ala-Glu-Pro-Phe-pNA); type: biochemical; details: compound 10 μM, Pin1 5 nM, substrate peptide 60 μM, 10° C.; read-out: Pin1 inhibition activity Cell-free assay (inhibition ratio)
Protocol: For some compounds synthesized in Example 1, the inhibitory activity against the function of Pin1 was measured by a cell-free assay based on the method by Janowski et al. (AnalyticalBiochemistry, 1997, Vol. 252, Issue 2, pp. 299-307) because there is an assay measuring peptidylprolylisomerase activity without cells (cell-free).
Briefly, an assay buffer (containing 35 mM HEPES, pH 7.8, 50 μM DTT and 0.0025% NP40) was equilibrated to 10° C. in a quartz cell with stirring function. To this solution was added the compound dissolved in DMSO (10 μM) and then UV spectrum of the resulting solution was immediately measured. Then Pin1 (final concentration of 5 nM) was added to the solution. The reaction was initiated by adding a substrate peptide (Suc-Ala-Glu-Pro-Phe-pNA) dissolved in 0.5 M LiCl solution in trifluoroethanol (final concentration of 60 μM). After reaction was initiated, the change of absorbance at 330 nm was measured for 5 minutes. The resultant reaction curve was fitted to a first order decay model to calculate the reaction rate. The catalytic reaction rate was calculated by subtracting the background rate from the reaction rate. The inhibition ratio (%) was calculated from the catalytic reaction rates in the presence and absence of the compound. The higher inhibition ratio means the higher inhibitory activity against Pin1 function.

Row | inhibition at 10 µM (Pin1 [2]) [%] | SMILES | Pin1 inhibition activity Cell-based assay (Pin1 [1])
1 |  | COC(=O)c1cc(NC(=O)c2ccc3ccccc3c2)cc(NC(=O)n2c3ccccc3c3ccccc32)c1 [Compound H-591] | +++ (Hydrolysis causes conversion to H-594)
2 |  | O=C(O)c1cc(NC(=O)c2ccc3ccccc3c2)cc(NC(=O)n2c3ccccc3c3ccccc32)c1 [Compound H-594] | +++
3 |  | COC(=O)c1cc(NC(=O)Nc2cccc3ccccc23)cc(NC(=O)c2ccc3ccccc3c2)c1 [Compound H-609] | ++ to +++ (Hydrolysis causes conversion to H-613)
4 | 38 | O=C(Nc1cc(NC(=O)c2ccc3ccccc3c2)cc(C(=O)O)c1)Nc1cccc2ccccc12 [Compound H-613] | + to ++
5 |  | COC(=O)c1cc(NC(=O)c2ccccc2)cc(NC(=O)n2c3ccccc3c3ccccc32)c1 [Compound H-679] | ++ (Hydrolysis causes conversion to H-681)
6 |  | O=C(O)c1cc(NC(=O)c2ccccc2)cc(NC(=O)n2c3ccccc3c3ccccc32)c1 [Compound H-681] | ++
7 |  | O=C(O)c1cc(NC(=O)c2cccnc2)cc(NC(=O)n2c3ccccc3c3ccccc32)c1 [Compound H-682] | +
8 |  | COC(=O)c1cc(NC(=O)c2ccc(NC(C)=O)cc2)cc(NC(=O)n2c3ccccc3c3ccccc32)c1 [Compound H-687] | − (Hydrolysis causes conversion to H-694)
9 |  | COC(=O)c1cc(NC(=O)c2ccc3c(c2)OCO3)cc(NC(=O)n2c3ccccc3c3ccccc32)c1 [Compound H-690] | − (Hydrolysis causes conversion to H-695)
10 | 80 to 94 | O=C(O)c1cc(NC(=O)c2ccc3c(c2)OCCO3)cc(NC(=O)n2c3ccccc3c3ccccc32)c1 [Compound H-692] | +++
11 | 69 | CC(=O)Nc1ccc(C(=O)Nc2cc(NC(=O)n3c4ccccc4c4ccccc43)cc(C(=O)O)c2)cc1 [Compound H-694] | ++
12 |  | O=C(O)c1cc(NC(=O)c2ccc3c(c2)OCO3)cc(NC(=O)n2c3ccccc3c3ccccc32)c1 [Compound H-695] | +++
13 |  | COC(=O)c1cc(NC(=O)c2ccc(OC(C)=O)cc2)cc(NC(=O)n2c3ccccc3c3ccccc32)c1 [Compound H-696] | ++ (Hydrolysis causes conversion to H-697)
14 |  | O=C(O)c1cc(NC(=O)c2ccc(O)cc2)cc(NC(=O)n2c3ccccc3c3ccccc32)c1 [Compound H-697] | +
15 |  | COC(=O)c1cc(NC(=O)c2cnccn2)cc(NC(=O)n2c3ccccc3c3ccccc32)c1 [Compound H-699] | ++ (Hydrolysis causes conversion to H-700)
16 |  | O=C(O)c1cc(NC(=O)c2cnccn2)cc(NC(=O)n2c3ccccc3c3ccccc32)c1 [Compound H-700] | ++
17 |  | COC(=O)c1cc(NC(=O)c2ccc3ccccc3c2)cc(NC(=O)N(c2ccccc2)c2ccccc2)c1 [Compound H-728] | + (Hydrolysis causes conversion to H-732)
18 |  | COC(=O)c1cc(NC(=O)c2ccc3ccccc3n2)cc(NC(=O)N(c2ccccc2)c2ccccc2)c1 [Compound H-729] | ++ (Hydrolysis causes conversion to H-733)
19 |  | COC(=O)c1cc(NC(=O)c2ccc3c(c2)OCCO3)cc(NC(=O)N(c2ccccc2)c2ccccc2)c1 [Compound H-730] | ++ (Hydrolysis causes conversion to H-734)
20 |  | COC(=O)c1cc(NC(=O)c2cnc3ccccc3n2)cc(NC(=O)N(c2ccccc2)c2ccccc2)c1 [Compound H-731] | +++ (Hydrolysis causes conversion to H-735)

Row | inhibition at 10 µM (Pin1 [2]) [%] | SMILES | Pin1 inhibition activity Cell-based assay (Pin1 [1])
21 |  | O=C(O)c1cc(NC(=O)c2ccc3ccccc3c2)cc(NC(=O)N(c2ccccc2)c2ccccc2)c1 [Compound H-732] | +
22 | 61 | O=C(O)c1cc(NC(=O)c2ccc3ccccc3n2)cc(NC(=O)N(c2ccccc2)c2ccccc2)c1 [Compound H-733] | −
23 | 82 | O=C(O)c1cc(NC(=O)c2ccc3c(c2)OCCO3)cc(NC(=O)N(c2ccccc2)c2ccccc2)c1 [Compound H-734] | −
24 |  | O=C(O)c1cc(NC(=O)c2cnc3ccccc3n2)cc(NC(=O)N(c2ccccc2)c2ccccc2)c1 [Compound H-735] | +
25 |  | COC(=O)c1cc(NC(=O)Cn2c3ccccc3c3ccccc32)cc(NC(=O)c2ccc3ccccc3c2)c1 [Compound H-744] | + (Hydrolysis causes conversion to H-745)
26 | 88 to 95 | O=C(Cn1c2ccccc2c2ccccc21)Nc1cc(NC(=O)c2ccc3ccccc3c2)cc(C(=O)O)c1 [Compound H-745] | −
27 |  | COC(=O)c1cc(NC(=O)Cn2c3ccccc3c3ccccc32)cc(NC(=O)c2ccc3ccccc3n2)c1 [Compound H-746] | − (Hydrolysis causes conversion to H-747)
28 |  | O=C(Cn1c2ccccc2c2ccccc21)Nc1cc(NC(=O)c2ccc3ccccc3n2)cc(C(=O)O)c1 [Compound H-747] | ++
29 |  | COC(=O)c1cc(NC(=O)Cn2c3ccccc3c3ccccc32)cc(NC(=O)c2ccc3c(c2)OCCO3)c1 [Compound H-748] | ++ (Hydrolysis causes conversion to H-749)
30 | 53 | O=C(Cn1c2ccccc2c2ccccc21)Nc1cc(NC(=O)c2ccc3c(c2)OCCO3)cc(C(=O)O)c1 [Compound H-749] | 
31 |  | COC(=O)c1cc(NC(=O)COc2ccccc2)cc(NC(=O)n2c3ccccc3c3ccccc32)c1 [Compound H-758] | − (Hydrolysis causes conversion to H-759)
32 | 11 | O=C(COc1ccccc1)Nc1cc(NC(=O)n2c3ccccc3c3ccccc32)cc(C(=O)O)c1 [Compound H-759] | −
33 |  | COC(=O)c1cc(NC(=O)COc2ccc3ccccc3c2)cc(NC(=O)n2c3ccccc3c3ccccc32)c1 [Compound H-760] | + (Hydrolysis causes conversion to H-761)
34 | 70 | O=C(COc1ccc2ccccc2c1)Nc1cc(NC(=O)n2c3ccccc3c3ccccc32)cc(C(=O)O)c1 [Compound H-761] | −
35 |  | COC(=O)c1cc(NC(=O)COc2ccc3ccccc3n2)cc(NC(=O)n2c3ccccc3c3ccccc32)c1 [Compound H-764] | − (Hydrolysis causes conversion to H-765)
36 | 42.8 | O=C(COc1ccc2ccccc2n1)Nc1cc(NC(=O)n2c3ccccc3c3ccccc32)cc(C(=O)O)c1 [Compound H-765] | −
37 |  | COC(=O)c1cc(NC(=O)CNC(=O)c2ccccc2)cc(NC(=O)n2c3ccccc3c3ccccc32)c1 [Compound H-766] | + (Hydrolysis causes conversion to H-767)
38 |  | COC(=O)c1cc(NC(=O)CNC(=O)OCc2ccccc2)cc(NC(=O)n2c3ccccc3c3ccccc32)c1 [Compound H-768] | − (Hydrolysis causes conversion to H-769)
39 | 4.2 | O=C(CN(c1ccccc1)c1ccccc1)Nc1cc(NC(=O)c2ccc3c(c2)OCCO3)cc(C(=O)O)c1 [Compound H-823] | 
40 | 19.9 | O=C(CN(c1ccccc1)c1ccccc1)Nc1cc(NC(=O)c2ccccc2)cc(C(=O)O)c1 [Compound H-825] | 
